Laboratory results taken from patent publication EP0051819A2, “Tetra-substituted benzene derivatives, their preparation and pharmaceutical preparations containing them” (F. HOFFMANN-LA ROCHE & CO. Aktiengesellschaft, priority 1980, dated 1982).
In brackets after ≈: the same amount, converted by molar mass. Where two headings read alike, the source gives them in different places.

Columns and labels:
[1] = Cytotoxicity in HeLa cells, observed microscopically in the antiviral test; assay type: cell-based; details: human, hela cells
Description: (§1) Eine Suspension von HeLa-Zellen (6 x 10^4) wurde mit Rhinovirus HGP (3 x 10^3 Plaque-bildende Einheiten, PFU) gemischt und auf eine Mikrotestplatte gebracht, die die zu testenden Verbindungen in zunehmender Verdünnung enthielten. Die Zellen wurden dann in Eagle's Minimalnährlösung, die 2% Kalbsserum, 1% Tryptosephosphatbrühe, 100 ug/ml Streptomycin und 20 Einheiten/ml Penicillin G enthielt, kultiviert. Der virale zytopathogenische Effekt (C.P.E.) und die Cytotoxizität wurden mikroskopisch nach 2 Tagen Kultivierung bei 33°C beobachtet. Die antivirale Aktivität (IC50) der Testverbindungen ist diejenige Konzentration,.bei der C.P.E. um 50% gegenüber der Kontrollkultur gehemmt war. Die Cytotoxizität ist als Minimalkonzentration angegeben, bei der toxische Symptome beobachtet wurden.(cytotoxische Dosis).

[2] = test system: Rhinovirus HGP; experiment: Antiviral activity: inhibition of viral cytopathogenic effect (C.P.E.) in HeLa cell culture; assay type: cell-based; details: for IC50: Enterovirus, HeLa, 48 h; for antivirale Aktivität: qualitative statement in the description, no virus named
Description: as §1

[3] = minimal concentration at which toxic symptoms were observed (cytotoxische Dosis), 2 days at 33°C, read-out: Cytotoxizität
[4] = concentration inhibiting C.P.E. by 50% versus control culture, HeLa cells, 2 days at 33°C, read-out: IC50

Compound | MCC at 48 h [1, 3] [µg/mL] | IC50 [2, 4] [µg/mL] | MCC at 48 h [1] [µg/mL] | antivirale Aktivität [2] | IC50 [2] [µg/mL]
CCOC(=O)Oc1cc(OC)cc(OC)c1C(=O)NCc1ccc(OC)cc1 | > 8 | 0.1 (≈ 0.257 µM) |  |  | 
CCOc1cc(OC)cc(O)c1C(=O)CCc1ccc(OC)cc1 [1-(2-Ethoxy-6-hydroxy-4--methoxyphenyl)-3-(4-methoxy-phenyl)-1-propanon] | 0.9 | 0.01 to 0.03 (≈ 0.0303 to 0.0908 µM) |  |  | 
COc1cc(O)c(C(=O)CCc2ccc(C)cc2)c(OC)c1 [1-(2-Hydroxy-4,6-dimethoxy-phenyl)-3-(4-methylphenyl)-1--propanon] | > 8 | 0.01 to 0.03 (≈ 0.0333 to 0.0999 µM) |  |  | 
COc1cc(O)c(C(=O)CCc2ccc3c(c2)OCO3)c(OC)c1 [1-(2-Hydroxy-4,6-dimethoxy-phenyl)-3-[3,4-(methylendioxy)-phenyl]-1-propanon] | > 8 | 0.03 to 0.1 (≈ 0.0908 to 0.303 µM) |  |  | 
COc1cc(O)c(C(=O)CCc2ccc(SC)cc2)c(OC)c1 [1-(2-Hydroxy-4,6-dimethoxy-phenyl)-3-[4-(methylthio)-phenyl]-1-propanon] | 8 | 0.01 to 0.03 (≈ 0.0301 to 0.0902 µM) |  |  | 
COc1ccc(C(=O)CC(=O)c2c(O)cc(OC)cc2OC)cc1 [1-(2-Hydroxy-4,6-dimethoxyphenyl)-3-(4-methoxyphenyl)-1,3-propandion] | 8 | 0.01 to 0.03 (≈ 0.0303 to 0.0908 µM) |  |  | 
COc1cc(O)c(C(=O)CCc2ccc(C)o2)c(OC)c1 [1-(2-Hydroxy-4,6-dimethoxyphenyl)-3-(5-methyl-2-furyl)-l-propanon] | > 8 | 0.9 (≈ 3.1 µM) |  |  | 
COc1cc(O)c(C(=O)CCC2CCC(C)O2)c(OC)c1 (stereo not drawn) [1-(2-Hydroxy-4,6-dimethoxyphenyl)-3-(tetrahydro-5-methyl-2-furyl)-1-propanon] | > 8 | 0.9 (≈ 3.06 µM) |  |  | 
COc1ccc(CCC(=O)c2c(O)cc(OC(C)C)cc2OC)cc1 [1-(2-Hydroxy-4-isopropoxy-6-methoxyphenyl)-3-(4-methoxyphenyl)-1-propanon] | 8 | 0.03 to 0.1 (≈ 0.0871 to 0.29 µM) |  |  | 
CCCOc1cc(O)c(C(=O)CCc2ccc(OC)cc2)c(OC)c1 [1-(2-Hydroxy-6-methoxy-4-propoxyphenyl)-3-(4-methoxyphenyl)-1-propanon] | 2.7 | 0.004 to 0.01 (≈ 0.0116 to 0.029 µM) |  |  | 
COc1ccc(CCC(=NO)c2c(O)cc(OC)cc2OC)cc1 [1-(2-Hydroxy--4,6-dimethoxyphenyl)-3-(4-methoxyphenyl)-1-propanon-oxim] | > 10 |  |  |  | 
CCOc1cc(O)c(C(=S)CCc2ccc(OC)cc2)c(OC)c1 [1-(4-Ethoxy-2-hydroxy-6-methoxyphenyl)-3-(4-methoxyphenyl)-1-propanthion] |  | 0.002 (≈ 0.00577 µM) | 2.7 | besonders starke antivirale Aktivität | 
COc1ccc(CCC(=O)c2c(O)cc(SC)cc2OC)cc1 [1-[2-Hydroxy-6-methoxy-4-(methylthio)-phenyl]-3-(4-methoxyphenyl)-1-propanon] | 1 | 0.1 (≈ 0.301 µM) |  |  | 
CCOc1cc(OC)c(C(=O)NCc2ccc(OC)cc2)c(OP(=O)(O)O)c1 [2--[(p-Anisylamino)carbonyl]-5-ethoxy-3-methoxyphenyl-dihydrogenphosphat] | > 8 |  |  | besonders starke antivirale Aktivität | 0.01 to 0.03 (≈ 0.0243 to 0.0729 µM)
COc1cc(O)c(C(=O)NCc2cccs2)c(OC)c1 [2-Hydroxy-4,6-dimethoxy-N-(2--thenyl)benzamid] | 8 | 0.03 (≈ 0.102 µM) |  |  | 
COc1cc(O)c(C(=O)NCc2ccc[nH]2)c(OC)c1 [2-Hydroxy-4,6-dimethoxy-N-(2-pyrrolylmethyl)benzamid] | > 8 | 2.7 (≈ 9.77 µM) |  |  | 
COc1ccc(NC(=O)c2c(O)cc(OC)cc2OC)cc1 [2-Hydroxy-4,6-dimethoxy-N-(4--methoxyphenyl)benzamid] | > 10 | 0.03 to 0.1 (≈ 0.0989 to 0.33 µM) |  |  | 
COc1cc(O)c(C(=O)NCc2ccc3c(c2)OCO3)c(OC)c1 [2-Hydroxy-4,6-dimethoxy-N-(m,p--methylenedioxybenzyl)benzamid] | > 8 | 0.003 to 0.01 (≈ 0.00905 to 0.0302 µM) |  |  | 
COc1cccc(CNC(=O)c2c(O)cc(OC)cc2OC)c1 [2-Hydroxy-4,6-dimethoxy-N-(m--methoxybenzyl)benzamid] | > 8 | 0.002 (≈ 0.0063 µM) |  |  | 
COc1cc(O)c(C(=O)NCc2ccc(C)cc2)c(OC)c1 [2-Hydroxy-4,6-dimethoxy-N-(p--methylbenzyl)benzamid] | 8 | 0.01 to 0.03 (≈ 0.0332 to 0.0996 µM) |  |  | 
COc1ccc(CNC(=O)c2c(O)cc(OC)cc2OC)cc1 [2-Hydroxy-4,6-dimethoxy-N-(p-methoxybenzyl)benzamid] | 8 | 0.002 (≈ 0.0063 µM) |  |  | 

Compound | MCC at 48 h [1, 3] [µg/mL] | IC50 [2, 4] [µg/mL] | MCC at 48 h [1] [µg/mL] | antivirale Aktivität [2] | IC50 [2] [µg/mL]
COc1cc(O)c(C(=O)NCc2ccc(OC)c(OC)c2)c(OC)c1 [2-Hydroxy-4,6-dimethoxy-N--(m,p-dimethoxybenzyl)benzamid] | 8 | 0.3 (≈ 0.864 µM) |  |  | 
COc1cc(O)c(C(=O)NCC2CCCS2)c(OC)c1 (stereo not drawn) [2-Hydroxy-4,6-dimethoxy-N--(tetrahydro-2-thenyl)benzamid] | 8 | 0.004 to 0.01 (≈ 0.0135 to 0.0336 µM) |  |  | 
CNC(=O)c1c(O)cc(OC)cc1OC [2-Hydroxy-4,6-dimethoxy-N--methylbenzamid] | > 8 | 0.9 (≈ 4.26 µM) |  |  | 
COc1cc(O)c(C(=O)NCc2ccncc2)c(OC)c1 [2-Hydroxy-4,6-dimethoxy-N-[(4-pyridyl)methyl]benzamid] | 8 | 0.9 (≈ 3.12 µM) |  |  | 
COc1cc(O)c(C(=O)NCc2ccc(SC)cc2)c(OC)c1 [2-Hydroxy-4,6-dimethoxy-N-[p--(methylthio)benzyl]benzamid] | > 8 | 0.002 (≈ 0.006 µM) |  | besonders starke antivirale Aktivität | 
COc1ccc(CNC(=O)c2c(O)cc(OCC=C(C)C)cc2OC)cc1 [2-Hydroxy-6-methoxy-4-(3-methyl-2-butenyloxy)-N-(p-methoxybenzyl)benzamid] | > 8 | 0.001 to 0.002 (≈ 0.00269 to 0.00538 µM) |  | besonders starke antivirale Aktivität | 
CCCOc1cc(O)c(C(=O)NCc2ccc(OC)cc2)c(OC)c1 [2-Hydroxy-6-methoxy-4-propoxy-N-(p-methoxybenzyl)benzamid] | > 20 | 0.001 to 0.003 (≈ 0.0029 to 0.00869 µM) |  | besonders starke antivirale Aktivität | 
COc1cc(O)c(C(=O)NCc2ccc(OC)c(O)c2)c(OC)c1 [2-Hydroxy-N-(m-hydroxy-p-methoxy-benzyl)-4,6-dimethoxybenzamid] | 2.7 | 0.1 to 0.3 (≈ 0.3 to 0.9 µM) |  |  | 
COc1cc(O)c(C(=O)NCc2ccc(O)cc2)c(OC)c1 [2-Hydroxy-N-(p-hydroxybenzyl)--4,6-dimethoxybenzamid] | > 8 | 0.3 (≈ 0.989 µM) |  |  | 
COc1ccc(CNC(=O)c2c(OC)cc(OC)cc2O[C@@H]2O[C@H](CO)[C@@H](O)[C@H](O)[C@H]2O)cc1 [2-[(p-Anisyl-amino)carbonyl]-3,5-dimethoxyphenyl-ß-D-glucopyranosid] | > 10 | 2.7 (≈ 5.63 µM) |  |  | 
CCOc1cc(OC)c(C(=O)NCc2ccc(OC)cc2)c(OC(C)=O)c1 [2-[(p-Anisyl-amino)carbonyl]-5-ethoxy-3-methoxypheny]acetat] | > 8 | 0.3 (≈ 0.803 µM) |  |  | 
COc1ccc(CNC(=O)c2c(OC)cc(OC)cc2OC(=O)c2ccccc2)cc1 [2-[(p-Anisylamino)carbonyl]-3,5-dimethoxyphenyl-benzoat] | > 8 | 0.03 (≈ 0.0712 µM) |  |  | 
COc1ccc(CNC(=O)c2c(OC)cc(OC)cc2OP(=O)(O)O)cc1 [2-[(p-Anisylamino)carbonyl]-3,5-dimethoxyphenyl-dihydrogenphosphat] | > 8 |  |  |  | 0.006 to 0.01 (≈ 0.0151 to 0.0252 µM)
CCCCCCCCCCCCCCCCCC(=O)Oc1cc(OC)cc(OC)c1C(=O)NCc1ccc(OC)cc1 [2-[(p-Anisylamino)carbonyl]-3,5-dimethoxyphenyl-octadecanoat] | > 8 | 0.3 to 0.9 (≈ 0.514 to 1.54 µM) |  |  | 
COc1ccc(CNC(=O)c2c(OC)cc(OC)cc2O[C@@H]2O[C@H](COC(C)=O)[C@@H](OC(C)=O)[C@H](OC(C)=O)[C@H]2OC(C)=O)cc1 [2-[(p-Anisylamino)carbonyl]-3,5-dimethoxyphenyl-tetra-O-acetyl-ß-D-glucopyranosid] | > 10 | 2.7 (≈ 4.17 µM) |  |  | 
C=CCOc1ccc(CNC(=O)c2c(OC)cc(OC)cc2OC(=O)c2ccccc2)cc1 [2-{[[p-(Allyloxy)benzyl]amino]carbonyl}-3,5-dimethoxyphenyl-benzoat] | 2.7 | 0.002 (≈ 0.00447 µM) |  | besonders starke antivirale Aktivität | 
C=CCOc1ccc(CNC(=O)c2c(OC)cc(OC)cc2OC(=O)CCCCCCCCCCCCCCCCC)cc1 [2-{[[p-(Allyloxy)benzyl]amino]carbonyl}-3,5-dimethoxyphenyl-octadecanoat] | > 8 | 0.3 (≈ 0.492 µM) |  |  | 
COc1cc(O)c(C(=O)CCc2ccc(Cl)cc2)c(OC)c1 [3-(4-Chlorophenyl)-1-(2-hydroxy--4,6-dimethoxyphenyl)-1--propanon] | 10 | 0.1 (≈ 0.312 µM) |  |  | 
C=CCOc1cc(O)c(C(=O)NCc2ccc(OC)cc2)c(OC)c1 [4-(Allyloxy)-2-hydroxy-6-methoxy-N-(p-methoxybenzyl)benzamid] | > 8 | 0.002 (≈ 0.00582 µM) |  | besonders starke antivirale Aktivität | 
CCOc1cc(O)c(C(=S)NCc2ccc(OC)cc2)c(OC)c1 [4-Ethoxy-2-hydroxy-6-methoxy-N-(p-methoxybenzyl)-thiobenzamid] | > 8 | 0.01 (≈ 0.0288 µM) |  |  | 
CCOc1cc(OC)c(C(=O)CCc2ccc(OC)cc2)c(OC(C)=O)c1 [5-Ethoxy-3-methoxy-2-[3-(4-methoxyphenyl)-propionyl]phenyl-acetat] | > 8 | 0.001 (≈ 0.00269 µM) |  |  | 
